Patent publication US8648042B2, “Pharmaceutical compositions” (priority 2011, dated 2014)

What was measured:
pUC119 plasmid DNA = assay: Protection of plasmid DNA from H2O2 and UV exposure (electrophoresis); type: biochemical; details: 20 mM H2O2 + 20 mJ/m^2 UV; Amifostine 2000 μg/ml, GP-A 4000 μg/ml; FIG. 3
Protocol: In this example, we examined the ability of GP-A in protecting plasmid DNA from hydrogen peroxide (H2O2) and UV exposure, which was also an indicator of the ability of quenching free radicals because free radicals tend to attack DNA structure. Amifostine, GP-Amifostine and GP were respectively dissolved in dd-water at various concentrations.
The above-nine experimental groups were then mixed with 3 μl loading dye for electrophoresis in order to observe the integrity of the plasmid DNA.

[1] = cited from earlier work
[2] = patients, intravenously before each fraction of radiation therapy; cited from earlier work
[3] = NSCLC patients, chemoradiation therapy, Arm 2; cited from earlier work
[4] = cited from earlier work; remark: listed apart in the source

NCCCNCCSP(=O)(O)O [Amifostine, S-2-(3-aminopropylamino)ethyl dihydrogen phosphorothioate]
protection ability against UV & H2O2 treated plasmid DNA (pUC119 plasmid DNA): solid and slight protection ability
protection of brain and spinal cord from radiation damage ([1]; brain and spinal cord): not protected
protection of normal tissues from radiation damage (factor) ([1]; esophagus, lung, kidney, liver, bone marrow, immune system, skin, colon, small bowel, salivary gland, oral mucosa, testis): ≤ 3
distribution between normal tissues and tumors ([1]; in vivo): selectively concentrated in normal tissues but passively absorbed by tumors
sparing of tumors from the effects of radiation or chemotherapy ([1]; tumors): no evidence that tumors were spared
severity of acute and late xerostomia [2]: significant reduction
Median survival time [3]: 19 months
discharge from a human body ([4]; human): within one hour
undesirable side-effects of systemic administration ([4]; patients, systemic administration): nausea, vomiting, emesis and hypotension, as well as flushing or feeling of warmth, chills or feeling of coldness, dizziness, somnolence, hiccups and sneezing
